Experimental data reported in patent publication US20140011870A1, “Methods of Treating Obesity Using an Effective Dose of a METAP-2 Inhibitor” (Zafgen, Inc., priority 2010, published 2014).

Columns and labels:
adiponectin = test: Adiponectin levels in the serum of patients undergoing the trial; type: in vivo, human; details: with treatment
Experimental: (§1) Obese patients were treated in three cohorts with intravenous administration of a formulation of the compound 6-O-(4-dimethylaminoethoxy)cinnamoyl fumagillol oxalate. The compound was intravenously administered to each patient of a cohort (except for a placebo cohort) twice weekly for at least 26 days. Each of patients in the three non-placebo cohorts received either 0.1 mg/m^2 (cohort 1); 0.3 mg/m^2 (cohort 2); or 0.9 mg/m^2 (cohort 3) doses of the compound at the time of administration. The trial was conducted under the appropriate government and medical supervision. Levels of adiponectin in the serum of patients undergoing the trial were also measured.

[1] = Visual Analog Scale reports of hunger in obese patients; type: in vivo, human; details: successive biweekly dose administration, 0.9 mg/m^2 cohort
Experimental: FIG. 2 depicts VAS reports of hunger decline by approximately 50% with body weight change (percent) with biweekly dosing of f 0.1 mg/m^2, 0.3 mg/m^2, and 0.9 mg/m^2 (approximately 1.8 to 2.1 mg) of 6-O-(4-dimethylaminoethoxy)cinnamoyl fumagillol in human patients. Values are means (n=6 per dose level) of changes in fasted Visual Analog Scale scores for each visit day vs. Day 1 for population; p values derived from 2-way ANOVA with Bonferroni post-test comparisons (*, p<0.05; **, p<0.01 vs. placebo). Obese patients were treated in three cohorts with intravenous administration of a formulation of the compound 6-O-(4-dimethylaminoethoxy)cinnamoyl fumagillol oxalate. The compound was intravenously administered to each patient of a cohort (except for a placebo cohort) twice weekly for at least 26 days. Each of patients in the three non-placebo cohorts received either 0.1 mg/m^2 (cohort 1); 0.3 mg/m^2 (cohort 2); or 0.9 mg/m^2 (cohort 3) doses of the compound at the time of administration. The trial was conducted under the appropriate government and medical supervision. […] FIG. 1 depicts the body weight change (loss) as a percent before each administration of the biweekly dose for the 0.9 mg/m^2 cohort. FIG. 2 depicts the Visual Analog Scale reports of hunger decline about 50% following successive biweekly dose administration for the 0.9 mg/m^2 cohort.

[2] = human, in vivo
Experimental: as §1, with “supervision.” for “supervision. Levels of adiponectin in the serum of patients undergoing the trial were also measured.”
Table 1 summarizes body weight determination of the 9 patients in the 0.9 mg/m^2 cohort on the day of the first dose and prior to a second dose administered four days later.
There was a significant correlation between weight loss of patients and maintained exposure of 0.02 ng/mL of the drug above the level of quantitation of the assay 24 hours after dosing, as shown in FIG. 4 (circled data point is exposure of one poor responder below the level of quantitation of assay). The PK profile at day 26 is representative of steady state (see FIG. 5).

[3] = Body weight in obese patients, twice weekly intravenous administration (clinical trial); type: in vivo, human; details: for Dose at which weight loss efficacy is obtained: administered twice weekly
Experimental: Obese patients were treated in three cohorts with intravenous administration of a formulation of the compound 6-O-(4-dimethylaminoethoxy)cinnamoyl fumagillol oxalate. The compound was intravenously administered to each patient of a cohort (except for a placebo cohort) twice weekly for at least 26 days. Each of patients in the three non-placebo cohorts received either 0.1 mg/m^2 (cohort 1); 0.3 mg/m^2 (cohort 2); or 0.9 mg/m^2 (cohort 3) doses of the compound at the time of administration. The trial was conducted under the appropriate government and medical supervision. […] Table 1 summarizes body weight determination of the 9 patients in the 0.9 mg/m^2 cohort on the day of the first dose and prior to a second dose administered four days later. […] FIG. 1 depicts the body weight change (loss) as a percent before each administration of the biweekly dose for the 0.9 mg/m^2 cohort. FIG. 2 depicts the Visual Analog Scale reports of hunger decline about 50% following successive biweekly dose administration for the 0.9 mg/m^2 cohort. […] All of the subjects of the trial described in Example 1 received doses ranging from 1.8 to 2.2 mg with each administration (given twice weekly). However, weight change of was not strictly associated with dose delivered. Instead, response was strongly associated with dose administered per unit excess body weight, as compared to weight change associated with dose delivered per unit body weight.

[4] = listed as 6-O-(4-dimethylaminoethoxy)cinnamoyl fumagillol

Drug exposure at 24 hours post dose correlated with weight loss [2]: above 0.02 ng/mL | terminal half life of the drug ([2]; iv): 5.4 h
Compound: CO[C@@H]1[C@H](OC(=O)/C=C/c2ccc(OCCN(C)C)cc2)CC[C@]2(CO2)[C@H]1[C@@]1(C)O[C@@H]1CC=C(C)C.O=C(O)C(=O)O [6-O-(4-dimethylaminoethoxy)cinnamoyl fumagillol oxalate]
Increase in adiponectin concentrations (adiponectin): over 60% | Visual Analog Scale reports of hunger decline [1]: about 50% | Visual Analog Scale reports of hunger decline [1, 4]: approximately 50% | Weight loss efficacy at low doses ([3]; 0.1 and 0.3 mg/m^2, twice weekly): Lack of efficacy | body weight loss over 26 days of exposure ([3]; 7 of the 9 subjects treated at 0.9 mg/m^2, twice weekly): 3-4% | Dose at which weight loss efficacy is obtained [3]: ≥ 0.02 mg/kg | Dose at which weight loss efficacy is obtained [3, 4]: ~0.02 mg/kg | Dose per kg of excess body weight needed to see effects ([3]; obese patients, twice weekly): > 40 μg of drug per kg of excess body weight
